For one experiment, the system named is C. pylori NCTC11637. In words: MIC by agar dilution method, C. pylori standard strain NCTC11637. To be noted: Helicobacter pylori, 72 h, in vitro, 37° C., pH 7.0, 3 days, microaerophilic, read-out: antibiotic activity (MIC). Type of experiment: cell-based. In general terms: Agar dilution tests growth on a series of plates holding different concentrations.
Another experiment has as its system C. pylori NCTC11916. Description: MIC by agar dilution method, C. pylori standard strain NCTC11916. Type of experiment: cell-based. To be noted: Helicobacter pylori, 72 h, in vitro, 37° C., pH 7.0, 3 days, microaerophilic, read-out: antibiotic activity (MIC).
A further experiment relates to C. pylori EI-2. Description: MIC by agar dilution method, C. pylori clinical isolate EI-2. The class given is cell-based. To be noted: Helicobacter pylori, EI2, 72 h; EI-2, clinical isolate; in vitro, 37° C., pH 7.0, 3 days, microaerophilic; read-out: antibiotic activity (MIC).
The subject of another experiment is C. pylori EI-5. In words: MIC by agar dilution method, C. pylori clinical isolate EI-5. To be noted: Helicobacter pylori, EI5, 72 h; EI-5, clinical isolate; in vitro, 37° C., pH 7.0, 3 days, microaerophilic; read-out: antibiotic activity (MIC). The class given is cell-based.
In another experiment the test system is C. pylori EI-36. Description: MIC by agar dilution method, C. pylori clinical isolate EI-36. Type of experiment: cell-based. To be noted: Helicobacter pylori, EI36, 72 h; EI-36, clinical isolate; in vitro, 37° C., pH 7.0, 3 days, microaerophilic; read-out: antibiotic activity (MIC).
In the next experiment the test system is C. pylori EI-46. Description: MIC by agar dilution method, C. pylori clinical isolate EI-46. To be noted: Helicobacter pylori, EI46, 72 h; EI-46, clinical isolate (resistant); in vitro, 37° C., pH 7.0, 3 days, microaerophilic; read-out: antibiotic activity (MIC). The class given is cell-based.
The test system of another experiment is C. pylori EI-391. Description: MIC by agar dilution method, C. pylori clinical isolate EI-391. Type of experiment: cell-based. To be noted: Helicobacter pylori, EI391, 72 h; EI-391, clinical isolate (resistant); in vitro, 37° C., pH 7.0, 3 days, microaerophilic; read-out: antibiotic activity (MIC).
The test system of the next experiment is C. pylori EI-393. In words: MIC by agar dilution method, C. pylori clinical isolate EI-393. Type of experiment: cell-based. To be noted: Helicobacter pylori, EI393, 72 h; EI-393, clinical isolate; in vitro, 37° C., pH 7.0, 3 days, microaerophilic; read-out: antibiotic activity (MIC).
The next experiment relates to C. pylori EI-397. In words: MIC by agar dilution method, C. pylori clinical isolate EI-397. The class given is cell-based. To be noted: Helicobacter pylori, EI397, 72 h; EI-397, clinical isolate; in vitro, 37° C., pH 7.0, 3 days, microaerophilic; read-out: antibiotic activity (MIC).
In a further experiment the test system is C. pylori EI-429. Description: MIC by agar dilution method, C. pylori clinical isolate EI-429. The class given is cell-based. To be noted: Helicobacter pylori, EI429, 72 h; EI-429, clinical isolate; in vitro, 37° C., pH 7.0, 3 days, microaerophilic; read-out: antibiotic activity (MIC).
The test system of a further experiment is C. pylori EI-467. Description: MIC by agar dilution method, C. pylori clinical isolate EI-467. Type of experiment: cell-based. To be noted: Helicobacter pylori, EI467, 72 h; EI-467, clinical isolate; in vitro, 37° C., pH 7.0, 3 days, microaerophilic; read-out: antibiotic activity (MIC).
Another experiment relates to C. pylori EI-612. In words: MIC by agar dilution method, C. pylori clinical isolate EI-612. To be noted: Helicobacter pylori, EI612, 72 h; EI-612, clinical isolate; in vitro, 37° C., pH 7.0, 3 days, microaerophilic; read-out: antibiotic activity (MIC). The class given is cell-based.
Another experiment concerns C. pylori EI-925. In words: MIC by agar dilution method, C. pylori clinical isolate EI-925. Type of experiment: cell-based. To be noted: Helicobacter pylori, EI925, 72 h; EI-925, clinical isolate; in vitro, 37° C., pH 7.0, 3 days, microaerophilic; read-out: antibiotic activity (MIC).
The next experiment deals with C. pylori EI-930. Description: MIC by agar dilution method, C. pylori clinical isolate EI-930. The class given is cell-based. To be noted: Helicobacter pylori, EI930, 72 h; EI-930, clinical isolate; in vitro, 37° C., pH 7.0, 3 days, microaerophilic; read-out: antibiotic activity (MIC).
The next experiment concerns C. pylori EI-933. Description: MIC by agar dilution method, C. pylori clinical isolate EI-933. Type of experiment: cell-based. To be noted: Helicobacter pylori, EI933, 72 h; EI-933, clinical isolate; in vitro, 37° C., pH 7.0, 3 days, microaerophilic; read-out: antibiotic activity (MIC).
For another experiment, the system named is C. pylori 8005. To be noted: C. pylori 8005, clinical isolate; JP-A 2-209809; cited from earlier work.
A further experiment concerns C. pylori. To be noted: JP-A 2-209809 and JP-A 3-173817; cited from earlier work.

Converted amounts (≈) assume the structure as drawn.

What is called MIC is the lowest concentration that inhibits growth of the organism.

For `COc1ccc2[nH]c([S+]([O-])Cc3ncc(C)c(OC)c3C)nc2c1` (centres unmarked) [(III), 5-Methoxy-2-[{(4-methoxy-3,5-dimethyl-2-pyridinyl)methyl}sulfinyl]-1H-benzimidazole], the MIC with C. pylori NCTC11637 is 50 µg/mL (≈ 145 µM); in the experiment with C. pylori NCTC11916, 25 µg/mL (≈ 72.4 µM); in the experiment with C. pylori EI-2, 25 µg/mL (≈ 72.4 µM); with C. pylori EI-5 it was 50 µg/mL (≈ 145 µM); with C. pylori EI-36 it was 25 µg/mL (≈ 72.4 µM); with C. pylori EI-46, 25 µg/mL (≈ 72.4 µM). Moreover, the MIC in the experiment on C. pylori EI-391 was found to be 50 µg/mL (≈ 145 µM); with C. pylori EI-393, 50 µg/mL (≈ 145 µM); in the experiment with C. pylori EI-397, 50 µg/mL (≈ 145 µM); in the experiment on C. pylori EI-429 it was 25 µg/mL (≈ 72.4 µM); in the experiment on C. pylori EI-467, 50 µg/mL (≈ 145 µM); in the experiment with C. pylori EI-612 it was 25 µg/mL (≈ 72.4 µM). Also, the minimum inhibitory concentration (MIC) in the experiment with C. pylori EI-925, in the experiment on C. pylori EI-930 and in the experiment on C. pylori EI-933 was 25 µg/mL (≈ 72.4 µM) each time. For the same molecule, the antibiotic activity result in the experiment on C. pylori 8005 is listed as “has antibiotic activity against C. pylori 8005”; in the experiment on C. pylori, “lacks sufficient antibiotic activity”.
